From US11000033B2, “Ketone or oxime compound, and herbicide” (NISSAN CHEMICAL CORPORATION, priority 2014, dated 2021)

Legend:
Assay type in all cases: in vivo
rice = test: Test Example 4: effect on crop by soil treatment (symbol b); conditions: application herbicide amount 320 g/ha
Method in brief: (§1)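 The test used sterilized diluvial soil. Seed was set down in spots and overlaid with about 1.5 cm of soil before growth in a greenhouse kept at 25° C. to 30° C.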

Amaranthus retroflexus = test: Test Example 5: herbicidal effect by foliage application, plastic box (symbol N); conditions: 320 g/ha, 3 weeks after application
Method in brief: (§2)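 Visual herbicidal score, taken three weeks post-application, of seedlings sprayed on the foliage with water-diluted emulsion at a predetermined amount; plants were 14 days old, greenhouse-raised at 25° C. to 30° C.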

corn = test: Test Example 5: effect on crop by foliage application, plastic box (symbol c); conditions: 320 g/ha, 3 weeks after application
Method in brief: (§3)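 Crop and weed seeds sown in spots in sterilized diluvial soil in plastic boxes and covered with about 1.5 cm soil. Plants raised in a greenhouse at 25° C. to 30° C. for foliar application.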

rapeseed = test: Test Example 5: effect on crop by foliage application, plastic box (symbol g); conditions: 320 g/ha, 3 weeks after application
Method in brief: as §3

Lolium multiflorum Lam. [1] = test: Test Example 5: herbicidal effect by foliage application, plastic box (symbol K); conditions: 320 g/ha, 3 weeks after application
Method in brief: as §2

soybean [2] = test: Test Example 5: effect on crop by foliage application, plastic box (symbol d); conditions: 320 g/ha, 3 weeks after application
Method in brief: as §3

soybean [3] = test: Test Example 4: effect on crop by soil treatment (symbol d); conditions: application herbicide amount 320 g/ha
Method in brief: as §1

wheat = test: Test Example 4: effect on crop by soil treatment (symbol e); conditions: application herbicide amount 320 g/ha
Method in brief: as §1

beet = test: Test Example 4: effect on crop by soil treatment (symbol f); conditions: application herbicide amount 320 g/ha
Method in brief: as §1

Avena fatua = test: Test Example 4: herbicidal effect by soil treatment (symbol I); conditions: application herbicide amount 320 g/ha
Method in brief: (§4)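 Seeds were sown in sterilized diluvial soil, covered with about 1.5 cm of soil, and the soil surface was sprayed with a water-diluted emulsion of the compound at a predetermined rate. Plants grew in a greenhouse at 25° C. to 30° C.; effects were scored visually 3 weeks after application.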

Scirpus juncoides = test: Test Example 2: herbicidal activity, application during weed generation in submerged conditions (symbol B); conditions: Table 23; application herbicide amount 320 g/ha; grade 0-5 by criteria of Test Example 1
Method in brief: (§5)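 Seeds sown in flooded alluvial soil (4 cm water) were grown in a 25-30° C greenhouse. At the one- to two-leaf stage, diluted emulsion of compound was applied to the water surface at a predetermined rate. Effect was scored 3 weeks later.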

[4] = system: Echinochloa crus-galli var. crus-galli; test: Test Example 5: herbicidal effect by foliage application, plastic box (symbol H); conditions: 320 g/ha, 3 weeks after application
Method in brief: as §2

[5] = system: Echinochloa crus-galli var. crus-galli; test: Test Example 4: herbicidal effect by soil treatment (symbol H); conditions: application herbicide amount 320 g/ha
Method in brief: as §4

transplanted rice plant = test: Test Example 1: effect on crop, application before weed generation in submerged conditions (symbol a); conditions: application herbicide amount 320 g/ha
Method in brief: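 Alluvial soil pots flooded to 4 cm water, sown with Echinochloa oryzacola, Scirpus juncoides and Monochoria vaginalis, then transplanted with 2.5 leaf stage rice seedlings; pre-emergence application. Greenhouse 25° C. to 30° C.; scored 0–5 by herbicidal ratio 3 weeks after application.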

Veronica persica = test: Test Example 5: herbicidal effect by foliage application, plastic box (symbol R); conditions: 320 g/ha, 3 weeks after application
Method in brief: as §2

Abutilon theophrasti = test: Test Example 4: herbicidal effect by soil treatment (symbol M); conditions: application herbicide amount 320 g/ha
Method in brief: as §4

Digitaria ciliaris = test: Test Example 5: herbicidal effect by foliage application, plastic box (symbol F); conditions: 320 g/ha, 3 weeks after application
Method in brief: as §2

Monochoria vaginalis = test: Test Example 2: herbicidal activity, application during weed generation in submerged conditions (symbol C); conditions: Table 23; application herbicide amount 320 g/ha; grade 0-5 by criteria of Test Example 1
Method in brief: as §5

Lolium multiflorum Lam. [6] = test: Test Example 4: herbicidal effect by soil treatment (symbol K); conditions: application herbicide amount 320 g/ha
Method in brief: as §4

SMILES	b (directly sowed rice plant) effect on crop grade (rice)	N: Amaranthus retroflexus, herbicidal effect grade (Amaranthus retroflexus)	c: corn, effect on crop grade (corn)	g: rapeseed, effect on crop grade (rapeseed)	K: Lolium multiflorum Lam., herbicidal effect grade (Lolium multiflorum Lam. [1])	d: soybean, effect on crop grade (soybean [2])	d (soybean) effect on crop grade (soybean [3])	e (wheat) effect on crop grade (wheat)	f (beet) effect on crop grade (beet)	I (Avena fatua) herbicidal effect grade (Avena fatua)	Herbicidal effect grade, B: Scirpus juncoides (Scirpus juncoides)	H: Echinochloa crus-galli var. crus-galli, herbicidal effect grade [4]	H (Echinochloa crus-galli var. crus-galli) herbicidal effect grade [5]	Effect grade on crop, a: transplanted rice plant (transplanted rice plant)	R: Veronica persica, herbicidal effect grade (Veronica persica)	M (Abutilon theophrasti) herbicidal effect grade (Abutilon theophrasti)	F: Digitaria ciliaris, herbicidal effect grade (Digitaria ciliaris)	Herbicidal effect grade, C: Monochoria vaginalis (Monochoria vaginalis)	K (Lolium multiflorum Lam.) herbicidal effect grade (Lolium multiflorum Lam. [6])
CC(CC1CC(O)=C(c2c(C)cc(C)cc2C)C1=O)=NOC(C)(C)C (stereo not shown) [1-053]	5 (Herbicidal ratio of 90% or more (almost completely withered))	0 (Herbicidal ratio of 5% or lower (almost no effect))	3 (Herbicidal ratio of 40% or higher and lower than 70%)	4 (Herbicidal ratio of 70% or higher and lower than 90%)	5 (Herbicidal ratio of 90% or more (almost completely withered))	3 (Herbicidal ratio of 40% or higher and lower than 70%)	0 (Herbicidal ratio of 5% or lower (almost no effect))	0 (Herbicidal ratio of 5% or lower (almost no effect))	0 (Herbicidal ratio of 5% or lower (almost no effect))	0 (Herbicidal ratio of 5% or lower (almost no effect))	0 (Herbicidal ratio of 5% or lower (almost no effect))	4 (Herbicidal ratio of 70% or higher and lower than 90%)	5 (Herbicidal ratio of 90% or more (almost completely withered))	5 (Herbicidal ratio of 90% or more (almost completely withered))	2 (Herbicidal ratio of 20% or higher and lower than 40%)	1 (Herbicidal ratio of 5% or higher and lower than 20%)	3 (Herbicidal ratio of 40% or higher and lower than 70%)	0 (Herbicidal ratio of 5% or lower (almost no effect))	5 (Herbicidal ratio of 90% or more (almost completely withered))
CCCCCCCON=C(C)CC1CC(O)=C(c2c(C)cc(C)cc2C)C1=O (stereo not shown) [1-054]	5 (Herbicidal ratio of 90% or more (almost completely withered))	0 (Herbicidal ratio of 5% or lower (almost no effect))	0 (Herbicidal ratio of 5% or lower (almost no effect))	3 (Herbicidal ratio of 40% or higher and lower than 70%)	5 (Herbicidal ratio of 90% or more (almost completely withered))	0 (Herbicidal ratio of 5% or lower (almost no effect))	0 (Herbicidal ratio of 5% or lower (almost no effect))	0 (Herbicidal ratio of 5% or lower (almost no effect))	0 (Herbicidal ratio of 5% or lower (almost no effect))	0 (Herbicidal ratio of 5% or lower (almost no effect))	0 (Herbicidal ratio of 5% or lower (almost no effect))	4 (Herbicidal ratio of 70% or higher and lower than 90%)	4 (Herbicidal ratio of 70% or higher and lower than 90%)	5 (Herbicidal ratio of 90% or more (almost completely withered))	0 (Herbicidal ratio of 5% or lower (almost no effect))	0 (Herbicidal ratio of 5% or lower (almost no effect))	2 (Herbicidal ratio of 20% or higher and lower than 40%)	0 (Herbicidal ratio of 5% or lower (almost no effect))	5 (Herbicidal ratio of 90% or more (almost completely withered))
CC(CC1CC(O)=C(c2c(C)cc(C)cc2C)C1=O)=NOc1ccccc1 (stereo not shown) [1-057]	5 (Herbicidal ratio of 90% or more (almost completely withered))	0 (Herbicidal ratio of 5% or lower (almost no effect))	0 (Herbicidal ratio of 5% or lower (almost no effect))	4 (Herbicidal ratio of 70% or higher and lower than 90%)	5 (Herbicidal ratio of 90% or more (almost completely withered))	3 (Herbicidal ratio of 40% or higher and lower than 70%)	0 (Herbicidal ratio of 5% or lower (almost no effect))	0 (Herbicidal ratio of 5% or lower (almost no effect))	0 (Herbicidal ratio of 5% or lower (almost no effect))	0 (Herbicidal ratio of 5% or lower (almost no effect))	0 (Herbicidal ratio of 5% or lower (almost no effect))	4 (Herbicidal ratio of 70% or higher and lower than 90%)	4 (Herbicidal ratio of 70% or higher and lower than 90%)	4 (Herbicidal ratio of 70% or higher and lower than 90%)	0 (Herbicidal ratio of 5% or lower (almost no effect))	3 (Herbicidal ratio of 40% or higher and lower than 70%)	3 (Herbicidal ratio of 40% or higher and lower than 70%)	0 (Herbicidal ratio of 5% or lower (almost no effect))	5 (Herbicidal ratio of 90% or more (almost completely withered))
CON=C(CC1CC(O)=C(c2c(C)cc(C)cc2C)C1=O)C(C)(C)C (stereo not shown) [1-059]	4 (Herbicidal ratio of 70% or higher and lower than 90%)	0 (Herbicidal ratio of 5% or lower (almost no effect))	4 (Herbicidal ratio of 70% or higher and lower than 90%)	3 (Herbicidal ratio of 40% or higher and lower than 70%)	3 (Herbicidal ratio of 40% or higher and lower than 70%)	0 (Herbicidal ratio of 5% or lower (almost no effect))	0 (Herbicidal ratio of 5% or lower (almost no effect))	0 (Herbicidal ratio of 5% or lower (almost no effect))	0 (Herbicidal ratio of 5% or lower (almost no effect))	0 (Herbicidal ratio of 5% or lower (almost no effect))	0 (Herbicidal ratio of 5% or lower (almost no effect))	4 (Herbicidal ratio of 70% or higher and lower than 90%)	4 (Herbicidal ratio of 70% or higher and lower than 90%)	4 (Herbicidal ratio of 70% or higher and lower than 90%)	0 (Herbicidal ratio of 5% or lower (almost no effect))	1 (Herbicidal ratio of 5% or higher and lower than 20%)	1 (Herbicidal ratio of 5% or higher and lower than 20%)	0 (Herbicidal ratio of 5% or lower (almost no effect))	5 (Herbicidal ratio of 90% or more (almost completely withered))
